Laboratory results: patent US20100298602A1, “SYSTEMS AND METHODS FOR MICROFLUIDIC CRYSTALLIZATION” (Massachusetts Institute of Technology, priority 2009, published 2010)
Each block holds one compound with its values, some of them ahead of it.

Experiment: Seeded continuous crystallization in a microfluidic device; growth rates from optical images
Conditions: room temperature, water/ethanol antisolvent
[1] = Supersaturation S = ln(C/Cs,γ) = 0.319

G<010>,exp growth rate of <010> crystal plane (S = ln(C/Cs,α) = 0.33): 0.40 ± 0.25 μm/min
G<011>, exp growth rate of <011> crystal plane (S = ln(C/Cs,α) = 0.33): 2.22 ± 0.91 μm/min
G<010>,exp growth rate of <010> crystal plane (S = ln(C/Cs,α) = 0.56): 0.74 ± 0.16 μm/min
G<011>, exp growth rate of <011> crystal plane (S = ln(C/Cs,α) = 0.56): 3.34 ± 0.43 μm/min
G<010>,exp growth rate of <010> crystal plane (S = ln(C/Cs,α) = 0.64): 0.66 ± 0.23 μm/min
G<011>, exp growth rate of <011> crystal plane (S = ln(C/Cs,α) = 0.64): 4.78 ± 1.35 μm/min
Structure (SMILES): NCC(=O)O [α-Glycine, glycine]

G<010> experimental growth rate (S = ln(C/Cs,α) = 0.30): 194 ± 55 μm/min
G<010> experimental growth rate (S = ln(C/Cs,α) = 0.39): 235 ± 43 μm/min
G<010> experimental growth rate (S = ln(C/Cs,α) = 0.47): 250 ± 52 μm/min
Structure (SMILES): NCC(=O)O [β-Glycine, glycine]

G<00-1>,exp growth rate [1]: 4.4 ± 1.8 μm/min
G{100, 010},exp growth rate [1]: 3.2 ± 1.6 μm/min
G{100, 010},exp growth rate (Supersaturation S = ln(C/Cs,γ) = 0.389): 5.5 ± 1.6 μm/min
Structure (SMILES): NCC(=O)O [γ-Glycine, glycine]
